The subject of the assay is PTZ-treated mice. Briefly: Acute PTZ method (pentylenetetrazol-induced seizure assay). It is filed as in vivo. Particulars: Mus musculus, lowest dose significantly affecting latency to tonic seizures in PTZ-treated mice, PO, read-out: Anticonvulsive Effect Dose. The method, then:
The anticonvulsant effect of test compounds were assessed in a pentylenetetazol-induced seizure assay in mice similar to methods described in Giardina & Gasior (Curr Protoc Pharmacol. 2009). Male CD-1 mice were housed in groups of five under controlled conditions (temperature of 22±2° C. and 12:12 light-dark cycle, lights on at 8:00 am) and water and food were available ad libitum. The mice were housed for 1 week prior to behavioral testing, at which time they weighed 25-35 g. Pentylenetetrazol (PTZ, Sigma) was dissolved in sterile 0.9% saline at a concentration of 12 mg/mL concentration for subcutaneous administration. Test compounds were formulated and administered via oral gavage or intraperitoneal injection at a predetermined time-point (typically 30 or 60 minutes) prior to PTZ injection. […]
Mice were acclimated to the test room for at least 30 min before compound administration. […] Each mouse was continuously observed for 30 min and the following behaviors were recorded by observers blinded to the treatments: 1) latency to clonic convulsions that persist for 3 sec and followed by an absence of righting reflex 2) latency to tonic convulsions, characterized by the rigid extension of all four limbs that exceeded a 90 degree angle with the body 3) latency to death 4) number of clonic and tonic convulsions. […]

Each structure is given as a SMILES string.

Consider `C[C@@]1(O)CC[C@@]2(C)[C@H](CC[C@@H]3[C@@H]2CC[C@]2(C)[C@@H](C(=O)Cn4ccc(C#N)n4)CC[C@@H]32)C1` [Compound 24], for which the minimal effective dose is 1 to 5 mg/kg.
Next, `Cc1nnn(CC(=O)[C@H]2CC[C@H]3[C@@H]4CC[C@@H]5C[C@](C)(O)CC[C@]5(C)[C@H]4CC[C@]23C)n1` [Compound 32]: at most 1 mg/kg.
